Source: patent publication US7759369B2, “Pyridine compounds for the treatment of prostaglandin mediated diseases” (Glaxo Group Limited, priority 2004, dated 2010)
Structures can show the parent of a compound that is named as a salt.

What was measured:
TP receptor = molecular target: T1, TP receptor (Homo sapiens, UniProt P21731); experiment: human TP calcium mobilisation assay (CHO-K1 cells, U46619, FLIPR); assay type: cell-based; conditions: free bases or sodium salts; read-out: functional pKi, human TP calcium mobilisation assay (converted)
T1 construct: expressed in transfected cells; host or cells: CHO-K1
T1 sequence (P21731 1-343): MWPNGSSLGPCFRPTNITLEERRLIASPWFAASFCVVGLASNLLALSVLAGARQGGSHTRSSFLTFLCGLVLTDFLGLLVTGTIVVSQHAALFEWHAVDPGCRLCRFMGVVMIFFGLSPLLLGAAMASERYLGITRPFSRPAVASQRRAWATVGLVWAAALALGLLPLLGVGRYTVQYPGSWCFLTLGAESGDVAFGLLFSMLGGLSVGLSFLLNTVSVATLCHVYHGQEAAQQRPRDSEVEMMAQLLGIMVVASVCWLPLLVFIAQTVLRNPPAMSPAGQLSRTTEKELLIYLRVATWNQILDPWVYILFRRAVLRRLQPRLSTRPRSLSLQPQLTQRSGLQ
Description: To determine if a compound has agonist or antagonist activity at the TP receptor a functional calcium mobilisation assay may be performed. Briefly, the antagonist properties of compounds are assessed by their ability to inhibit the mobilisation of intracellular calcium ([Ca^2+]i) in response to activation of TP receptors by the stable TXA2 mimetic U46619 (9,11-dideoxy-11α,9α-epoxy-methanoprostaglandin F2 α; commercially available from e.g Sigma-Aldrich). Increasing concentrations of antagonist reduce the amount of calcium that a given concentration of U46619 can mobilise. The net effect is to displace the U46619 concentration-effect curve. The amount of calcium produced is assessed using a calcium-sensitive fluorescent dye such as Fluo-4, AM and a suitable instrument such as a Fluorimetric Imaging Plate Reader (FLIPR). Increasing amounts of [Ca^2+]i produced by receptor activation increase the amount of fluorescence produced by the dye and give rise to an increasing signal. The signal may be detected using the FLIPR instrument and the data generated may be analysed with suitable curve-fitting software. The agonist activity of the compounds are determined by their ability to cause an increase in intracellular mobilisation in the absence of U46619.
(§1) The human TP calcium mobilisation assay utilises Chinese hamster ovary-K1 (CHO-K1) cells into which a stable (pCIN; BioTechniques 20 (1996): 102-110) vector containing TP cDNA has previously been transfected. Cells are cultured in suitable flasks containing culture medium such as DMEM:F-12 supplemented with 10% v/v foetal calf serum, 2 mM L-glutamine, 0.25 mg/ml geneticin, 100 μM flurbiprofen and 10 μg/ml puromycin.
(§2) For assay, cells are harvested using a proprietary reagent that dislodges cells such as Versene. Cells are re-suspended in a suitable quantity of fresh culture media for introduction into a 96-well plate. Following incubation for 24 hours at 37° C. the culture media is replaced with a medium containing Fluo-4 and the detergent pluronic acid, and a further incubation takes place. Concentrations of compounds are then added to the plate in order to construct concentration-effect curves. This may be performed on the FLIPR in order to assess the agonist properties of the compounds. Concentrations of U46619 are then added to the plate in order to assess the antagonist properties of the compounds.
The data so generated may be analysed by means of a computerised curve-fitting routine. The concentration of compound that elicits a half-maximal inhibition of the calcium mobilisation induced by U46619 (plC50) may then be estimated, and the percentage activation caused by the compounds directly can be used to determine if there is any agonism present.

EP1 receptors [1] = molecular target: T2, EP1 receptors (Homo sapiens, UniProt P34995); experiment: human EP1 calcium mobilisation assay (CHO-K1 cells, PGE2, FLIPR); assay type: cell-based; design: expressed in transfected cells; host or cells: CHO-K1; conditions: free bases or sodium salts; averages of a number of experiments; read-out: functional pKi value, human EP1 calcium mobilisation assay (converted)
T2 sequence (P34995 1-402): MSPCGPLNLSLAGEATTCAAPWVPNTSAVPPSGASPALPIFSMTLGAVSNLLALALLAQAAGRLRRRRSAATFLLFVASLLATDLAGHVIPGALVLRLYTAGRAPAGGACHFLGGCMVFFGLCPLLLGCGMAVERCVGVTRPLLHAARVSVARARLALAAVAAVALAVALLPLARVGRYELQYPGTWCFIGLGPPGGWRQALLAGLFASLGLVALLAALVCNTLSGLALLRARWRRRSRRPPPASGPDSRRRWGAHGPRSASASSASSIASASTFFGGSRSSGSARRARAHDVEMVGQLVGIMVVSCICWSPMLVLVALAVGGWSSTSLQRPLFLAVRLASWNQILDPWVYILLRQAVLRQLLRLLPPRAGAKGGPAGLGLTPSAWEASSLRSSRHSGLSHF
Description: (§3) Briefly, the antagonist properties of compounds are assessed by their ability to inhibit the mobilisation of intracellular calcium ([Ca^2+]i) in response to activation of EP1 or EP3 receptors by the natural agonist hormone prostaglandin E2 (PGE2). Increasing concentrations of antagonist reduce the amount of calcium that a given concentration of PGE2 can mobilise. The net effect is to displace the PGE2 concentration-effect curve to higher concentrations of PGE2. The amount of calcium produced is assessed using a calcium-sensitive fluorescent dye such as Fluo-4, AM and a suitable instrument such as a Fluorimetric Imaging Plate Reader (FLIPR). Increasing amounts of [Ca^2+]i produced by receptor activation increase the amount of fluorescence produced by the dye and give rise to an increasing signal. The signal may be detected using the FLIPR instrument and the data generated may be analysed with suitable curve-fitting software.
as §1, with “human EP1 or EP3” for “human TP”, “assay (hereafter referred to as ‘the calcium assay’)” for “assay”, “containing either EP1 or EP3” for “containing TP”, “10 µg/ml” for “10 μg/ml”
as §2, with “384-well” for “96-well”, “PGE2” for “U46619”
(§4) The data so generated may be analysed by means of a computerised curve-fitting routine. The concentration of compound that elicits a half-maximal inhibition of the calcium mobilisation induced by PGE2 (pIC50) may then be estimated.

EP3 receptors = molecular target: T3, EP3 receptors (Homo sapiens, UniProt P43115); experiment: human EP3 calcium mobilisation assay (CHO-K1 cells, PGE2, FLIPR); assay type: cell-based; conditions: free bases or sodium salts; averages of a number of experiments; read-out: functional pKi value, human EP3 calcium mobilisation assay (converted)
T3 construct: expressed in transfected cells; host or cells: CHO-K1
T3 sequence (P43115 1-390): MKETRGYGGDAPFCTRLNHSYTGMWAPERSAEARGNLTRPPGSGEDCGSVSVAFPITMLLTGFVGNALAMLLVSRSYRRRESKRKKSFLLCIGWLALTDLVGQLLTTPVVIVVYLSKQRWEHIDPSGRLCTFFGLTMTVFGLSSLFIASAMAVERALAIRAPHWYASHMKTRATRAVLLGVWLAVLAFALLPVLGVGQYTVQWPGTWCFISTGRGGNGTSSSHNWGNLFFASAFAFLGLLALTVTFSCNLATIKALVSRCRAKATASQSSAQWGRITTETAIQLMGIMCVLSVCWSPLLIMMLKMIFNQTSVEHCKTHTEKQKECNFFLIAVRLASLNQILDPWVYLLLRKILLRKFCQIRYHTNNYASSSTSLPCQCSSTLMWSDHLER
Description: as §3
as §1, with “human EP1 or EP3” for “human TP”, “assay (hereafter referred to as ‘the calcium assay’)” for “assay”, “containing either EP1 or EP3” for “containing TP”, “10 µg/ml” for “10 μg/ml”
as §2, with “384-well” for “96-well”, “PGE2” for “U46619”
as §4

EP1 receptors [2] = molecular target: T2, EP1 receptors; experiment: Binding assay for the human prostanoid EP1 receptor (competition with [3H]-PGE2); design: expressed in transfected cells; host or cells: CHO-K1 (membrane fraction); conditions: averages of a number of experiments; Example 3 as sodium salt; read-out: pIC50 value in the binding assay for the human prostanoid EP1 receptor (converted)
Description: Binding Assay for the Human Prostanoid EP1 Receptor
Competition assay using [^3H]-PGE2.
Compound potencies are determined using a radioligand binding assay. In this assay compound potencies are determined from their ability to compete with tritiated prostaglandin E2 ([^3H]-PGE2) for binding to the human EP1 receptor.
This assay utilises Chinese hamster ovary-K1 (CHO-K1) cells into which a stable vector containing the EP1 cDNA has previously been transfected. Cells are cultured in suitable flasks containing culture medium such as DMEM:F-12 supplemented with 10% v/v foetal calf serum, 2 mM L-glutamine, 0.25 mg/ml geneticin, 10 μg/ml puromycin and 10 μM indomethacin.
Cells are detached from the culture flasks by incubation in calcium and magnesium free phosphate buffered saline containing 1 mM disodium ethylenediaminetetraacetic acid (Na2EDTA) and 10 μM indomethacin for 5 min. The cells are isolated by centrifugation at 250×g for 5 mins and suspended in an ice cold buffer such as 50 mM Tris, 1 mM Na2EDTA, 140 mM NaCl, 10 μM indomethacin (pH 7.4). The cells are homogenised using a Polytron tissue disrupter (2×10s burst at full setting), centrifuged at 48,000×g for 20 mins and the pellet containing the membrane fraction is washed (optional) three times by suspension and centrifugation at 48,000×g for 20 mins. The final membrane pellet is suspended in an assay buffer such as 10 mM 2-[N-morpholino]ethanesulphonic acid, 1 mM Na2EDTA, 10 mM MgCl2 (pH 6). Aliquots are frozen at −80° C. until required.
For the binding assay the cell membranes, competing compounds and [^3H]-PGE2 (3 nM final assay concentration) are incubated in a final volume of 100 μl for 30 min at 30° C. All reagents are prepared in assay buffer. Reactions are terminated by rapid vacuum filtration over GF/B filters using a Brandell cell harvester. The filters are washed with ice cold assay buffer, dried and the radioactivity retained on the filters is measured by liquid scintillation counting in Packard TopCount scintillation counter.
The data are analysed using non linear curve fitting techniques to determine the concentration of compound producing 50% inhibition of specific binding (IC50).

Row | Compound | Ki (TP receptor) [nM] | Ki (EP1 receptors [1]) [nM] | Ki (EP3 receptors) [nM] | IC50 (EP1 receptors [2]) [nM]
1 | O=C(O)c1cccc(Cc2cc(Cl)ccc2OCc2ccccc2F)n1 [Example 8, Sodium 6-[(5-chloro-2-{[(2-fluorophenyl)methyl]oxy}phenyl)methyl]-2-pyridinecarboxylate] | < 1000 | < 1000 | > 10000 | –
2 | O=C(O)c1cccc(Cc2cc(Cl)ccc2OCc2ccc(Cl)cc2)n1 [Example 9, Sodium 6-[(5-chloro-2-{[(4-chlororophenyl)methyl]oxy}phenyl)methyl]-2-pyridinecarboxylate] | < 1000 | < 1000 | > 10000 | –
3 | CC(C)COc1ccc(Cl)cc1Cc1cccc(C(=O)O)n1 [Example 15, Sodium 6-({5-chloro-2-[(2-methylpropyl)oxy]phenyl}methyl)-2-pyridinecarboxylate] | > 1000 | < 1000 | > 10000 | –
4 | O=C(O)c1cncc(Cc2cc(Cl)ccc2OCc2c(F)cccc2F)c1 [Example 27, Sodium 5-[(5-chloro-2-{[(2,6-difluorophenyl)methyl]oxy}phenyl)methyl]-3-pyridinecarboxylate] | – | – | – | > 1000
5 | Cc1ccc(Cc2cc(Cl)ccc2OCc2ccc(Cl)cc2F)nc1C(=O)O [Example 40, 6-[(5-Chloro-2-{[(4-chloro-2-fluorophenyl)methyl]oxy}-phenyl)methyl]-3-methyl-2-pyridinecarboxylic acid, sodium salt] | – | > 1000 | > 10000 | –
6 | CC(C)(C)Oc1ccc(Cl)cc1Cc1cccc(C(=O)O)n1 [Example 41, 6-({5-Chloro-2-[(1,1-dimethylethyl)oxy]phenyl}methyl)-2-pyridinecarboxylic acid] | – | > 1000 | – | > 1000
